Blank lines part the entries; values can stand above or below the molecule they belong to.
Legend:
[1] = target: T1, Hepatocyte nuclear factor 4-alpha (Homo sapiens) (UniProt P41235); assay: Selectivity interaction (Reporter gene assay) EUB0000585a HNF4A; parameters: recommended concentration 1 uM
T1 sequence (whole entry): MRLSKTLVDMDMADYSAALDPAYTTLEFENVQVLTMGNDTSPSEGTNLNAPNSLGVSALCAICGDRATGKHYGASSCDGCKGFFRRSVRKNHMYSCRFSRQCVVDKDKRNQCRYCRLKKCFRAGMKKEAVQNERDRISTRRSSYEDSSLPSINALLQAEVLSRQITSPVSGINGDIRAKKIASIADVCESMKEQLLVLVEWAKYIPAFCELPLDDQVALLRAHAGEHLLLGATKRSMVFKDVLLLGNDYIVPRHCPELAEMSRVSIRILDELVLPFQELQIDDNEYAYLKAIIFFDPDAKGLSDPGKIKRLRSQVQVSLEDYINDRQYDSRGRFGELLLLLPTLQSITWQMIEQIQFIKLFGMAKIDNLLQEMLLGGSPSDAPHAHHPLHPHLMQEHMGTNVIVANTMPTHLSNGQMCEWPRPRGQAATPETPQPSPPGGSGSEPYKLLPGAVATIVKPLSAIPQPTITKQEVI

[2] = target: T2, Nuclear receptor subfamily 2 group C member 1 (Homo sapiens) (UniProt P13056); assay: Selectivity interaction (Reporter gene assay) EUB0000585a NR2C1; parameters: recommended concentration 1 uM
T2 sequence (whole entry): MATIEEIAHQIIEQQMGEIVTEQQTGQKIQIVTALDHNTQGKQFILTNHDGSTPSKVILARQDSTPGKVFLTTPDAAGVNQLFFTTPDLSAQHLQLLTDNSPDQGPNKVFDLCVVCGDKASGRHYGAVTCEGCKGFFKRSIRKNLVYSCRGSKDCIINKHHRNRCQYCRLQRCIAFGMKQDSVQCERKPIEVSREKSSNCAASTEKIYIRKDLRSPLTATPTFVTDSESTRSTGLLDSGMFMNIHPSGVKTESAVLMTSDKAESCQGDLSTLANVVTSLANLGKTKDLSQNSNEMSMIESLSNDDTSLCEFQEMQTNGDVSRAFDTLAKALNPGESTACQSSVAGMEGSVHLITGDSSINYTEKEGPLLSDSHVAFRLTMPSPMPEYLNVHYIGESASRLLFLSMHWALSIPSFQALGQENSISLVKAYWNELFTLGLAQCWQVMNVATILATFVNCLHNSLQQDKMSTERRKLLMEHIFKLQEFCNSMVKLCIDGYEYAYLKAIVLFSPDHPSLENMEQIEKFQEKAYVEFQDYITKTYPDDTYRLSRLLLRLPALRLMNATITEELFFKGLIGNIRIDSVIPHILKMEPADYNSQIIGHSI

[3] = target: Nuclear receptor subfamily 2 group E member 1 (Homo sapiens) (UniProt Q9Y466); assay: Selectivity interaction (Reporter gene assay) EUB0000585a NR2E1; parameters: recommended concentration 1 uM
Chain of Nuclear receptor subfamily 2 group E member 1 (Homo sapiens) (Q9Y466 whole entry): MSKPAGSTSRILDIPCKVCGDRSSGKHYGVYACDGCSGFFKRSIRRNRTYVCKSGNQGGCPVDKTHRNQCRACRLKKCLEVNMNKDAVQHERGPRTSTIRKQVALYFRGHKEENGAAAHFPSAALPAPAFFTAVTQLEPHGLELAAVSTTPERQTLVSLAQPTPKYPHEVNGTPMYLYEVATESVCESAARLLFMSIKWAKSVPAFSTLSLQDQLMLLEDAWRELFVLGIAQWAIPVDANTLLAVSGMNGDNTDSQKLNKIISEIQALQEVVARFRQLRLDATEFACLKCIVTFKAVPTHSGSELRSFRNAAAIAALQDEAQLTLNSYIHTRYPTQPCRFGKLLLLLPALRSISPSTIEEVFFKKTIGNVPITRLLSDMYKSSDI

[4] = target: Nuclear receptor subfamily 4immunitygroup A member 1 (Homo sapiens) (UniProt P22736); assay: Selectivity interaction (Reporter gene assay) EUB0000585a NR4A1; parameters: recommended concentration 1 uM
Chain of Nuclear receptor subfamily 4immunitygroup A member 1 (Homo sapiens) (P22736 whole entry): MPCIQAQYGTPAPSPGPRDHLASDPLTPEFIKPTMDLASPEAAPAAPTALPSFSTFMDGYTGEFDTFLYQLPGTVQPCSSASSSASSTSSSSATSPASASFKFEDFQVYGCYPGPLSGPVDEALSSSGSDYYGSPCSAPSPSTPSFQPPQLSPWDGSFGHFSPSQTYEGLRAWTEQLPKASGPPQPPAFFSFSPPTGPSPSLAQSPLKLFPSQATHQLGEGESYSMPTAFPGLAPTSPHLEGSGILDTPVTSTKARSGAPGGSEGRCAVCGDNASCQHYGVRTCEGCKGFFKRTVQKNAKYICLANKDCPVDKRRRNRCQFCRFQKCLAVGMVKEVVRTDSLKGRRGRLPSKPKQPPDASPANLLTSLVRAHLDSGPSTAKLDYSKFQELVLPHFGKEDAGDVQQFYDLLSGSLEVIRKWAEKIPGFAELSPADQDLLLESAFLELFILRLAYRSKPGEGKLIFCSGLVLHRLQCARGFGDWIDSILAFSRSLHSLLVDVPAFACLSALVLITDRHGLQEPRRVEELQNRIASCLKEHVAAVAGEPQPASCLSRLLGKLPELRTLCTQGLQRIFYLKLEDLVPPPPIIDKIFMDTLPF

[5] = target: Steroidogenic factor 1 (Homo sapiens) (UniProt Q13285); assay: Selectivity interaction (Reporter gene assay) EUB0000585a NR5A1; parameters: recommended concentration 1 uM
Chain of Steroidogenic factor 1 (Homo sapiens) (Q13285 whole entry): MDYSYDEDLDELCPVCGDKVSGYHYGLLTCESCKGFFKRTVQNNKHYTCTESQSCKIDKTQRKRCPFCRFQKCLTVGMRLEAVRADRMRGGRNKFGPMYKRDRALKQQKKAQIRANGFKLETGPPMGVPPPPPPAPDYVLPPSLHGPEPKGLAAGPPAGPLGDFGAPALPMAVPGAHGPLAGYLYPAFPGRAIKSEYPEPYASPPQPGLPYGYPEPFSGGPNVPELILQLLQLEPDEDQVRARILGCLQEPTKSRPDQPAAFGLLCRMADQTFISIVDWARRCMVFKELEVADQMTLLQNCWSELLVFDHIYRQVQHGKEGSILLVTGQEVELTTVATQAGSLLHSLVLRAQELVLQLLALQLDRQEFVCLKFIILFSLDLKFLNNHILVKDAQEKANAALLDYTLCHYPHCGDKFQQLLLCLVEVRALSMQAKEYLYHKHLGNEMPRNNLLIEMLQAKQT

[6] = target: T3, Alpha trans-inducing protein (Human alphaherpesvirus 1) (UniProt A0A5J6DW59); assay: Selectivity interaction (Reporter gene assay) EUB0000585a UL48; parameters: recommended concentration 1 uM
T3 sequence (A0A5J6DW59 as listed by the source): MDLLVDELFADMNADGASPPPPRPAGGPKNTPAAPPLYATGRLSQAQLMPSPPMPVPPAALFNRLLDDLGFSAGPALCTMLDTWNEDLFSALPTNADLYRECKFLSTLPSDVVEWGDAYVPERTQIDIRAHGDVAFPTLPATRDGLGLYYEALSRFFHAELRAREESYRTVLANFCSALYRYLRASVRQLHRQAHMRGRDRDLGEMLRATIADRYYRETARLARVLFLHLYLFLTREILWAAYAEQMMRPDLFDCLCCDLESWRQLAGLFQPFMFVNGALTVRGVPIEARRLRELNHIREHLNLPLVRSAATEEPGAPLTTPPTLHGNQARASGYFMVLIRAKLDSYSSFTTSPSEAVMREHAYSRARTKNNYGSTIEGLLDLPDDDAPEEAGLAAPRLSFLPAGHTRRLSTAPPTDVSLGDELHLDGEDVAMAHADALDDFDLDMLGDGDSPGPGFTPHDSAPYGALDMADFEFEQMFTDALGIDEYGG

[7] = target: T4, Retinoic acid receptor RXR-alpha (Homo sapiens) (UniProt P19793); assay: Selectivity interaction (Reporter gene assay) EUB0000585a RXRA; parameters: recommended concentration 1 uM; conditions: reference bexarotene 1 uM, Selectivity number of off-targets 0.0, Selectivity number of targets 1.0, Source Knowledge inhouse
T4 sequence (whole entry): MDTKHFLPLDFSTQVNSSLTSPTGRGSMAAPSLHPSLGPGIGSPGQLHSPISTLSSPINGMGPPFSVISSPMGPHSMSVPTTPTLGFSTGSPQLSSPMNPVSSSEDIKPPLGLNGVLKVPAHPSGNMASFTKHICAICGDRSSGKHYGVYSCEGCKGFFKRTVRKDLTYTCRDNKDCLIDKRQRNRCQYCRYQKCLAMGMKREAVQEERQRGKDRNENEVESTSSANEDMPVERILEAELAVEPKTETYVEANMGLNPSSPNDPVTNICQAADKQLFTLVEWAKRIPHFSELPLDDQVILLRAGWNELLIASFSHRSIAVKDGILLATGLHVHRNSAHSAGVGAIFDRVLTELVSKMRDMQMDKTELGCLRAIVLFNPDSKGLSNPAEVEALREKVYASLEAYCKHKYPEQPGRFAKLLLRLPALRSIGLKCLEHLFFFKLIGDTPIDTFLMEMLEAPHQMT

[8] = target: T1, Hepatocyte nuclear factor 4-alpha (Homo sapiens); assay: Selectivity interaction (Reporter gene assay) EUB0000583a HNF4A; parameters: recommended concentration 1 uM
[9] = target: T2, Nuclear receptor subfamily 2 group C member 1 (Homo sapiens); assay: Selectivity interaction (Reporter gene assay) EUB0000583a NR2C1; parameters: recommended concentration 1 uM
[10] = target: Nuclear receptor subfamily 2 group E member 1 (Homo sapiens) (UniProt Q9Y466); assay: Selectivity interaction (Reporter gene assay) EUB0000583a NR2E1; parameters: recommended concentration 1 uM
[11] = target: Nuclear receptor subfamily 4immunitygroup A member 1 (Homo sapiens) (UniProt P22736); assay: Selectivity interaction (Reporter gene assay) EUB0000583a NR4A1; parameters: recommended concentration 1 uM
[12] = target: Steroidogenic factor 1 (Homo sapiens) (UniProt Q13285); assay: Selectivity interaction (Reporter gene assay) EUB0000583a NR5A1; parameters: recommended concentration 1 uM
[13] = target: T3, Alpha trans-inducing protein (Human alphaherpesvirus 1); assay: Selectivity interaction (Reporter gene assay) EUB0000583a UL48; parameters: recommended concentration 1 uM
[14] = target: T4, Retinoic acid receptor RXR-alpha (Homo sapiens); assay: Selectivity interaction (Reporter gene assay) EUB0000583a RXRA; parameters: recommended concentration 1 uM; conditions: reference bexarotene 1 uM, Selectivity number of off-targets 0.0, Selectivity number of targets 1.0, Source Knowledge inhouse
[15] = target: T1, Hepatocyte nuclear factor 4-alpha (Homo sapiens); assay: Selectivity interaction (Reporter gene assay) EUB0000576a HNF4A; parameters: recommended concentration 1 uM
[16] = target: T2, Nuclear receptor subfamily 2 group C member 1 (Homo sapiens); assay: Selectivity interaction (Reporter gene assay) EUB0000576a NR2C1; parameters: recommended concentration 1 uM
[17] = target: Nuclear receptor subfamily 2 group E member 1 (Homo sapiens) (UniProt Q9Y466); assay: Selectivity interaction (Reporter gene assay) EUB0000576a NR2E1; parameters: recommended concentration 1 uM
[18] = target: Nuclear receptor subfamily 4immunitygroup A member 1 (Homo sapiens) (UniProt P22736); assay: Selectivity interaction (Reporter gene assay) EUB0000576a NR4A1; parameters: recommended concentration 1 uM
[19] = target: Steroidogenic factor 1 (Homo sapiens) (UniProt Q13285); assay: Selectivity interaction (Reporter gene assay) EUB0000576a NR5A1; parameters: recommended concentration 1 uM
[20] = target: T3, Alpha trans-inducing protein (Human alphaherpesvirus 1); assay: Selectivity interaction (Reporter gene assay) EUB0000576a UL48; parameters: recommended concentration 1 uM
[21] = target: T4, Retinoic acid receptor RXR-alpha (Homo sapiens); assay: Selectivity interaction (Reporter gene assay) EUB0000576a RXRA; parameters: recommended concentration 1 uM; conditions: reference bexarotene 1 uM, Selectivity number of off-targets 0.0, Selectivity number of targets 1.0, Source Knowledge inhouse
[22] = target: T1, Hepatocyte nuclear factor 4-alpha (Homo sapiens); assay: Selectivity interaction (Reporter gene assay) EUB0000582a HNF4A; parameters: recommended concentration 1 uM
[23] = target: T2, Nuclear receptor subfamily 2 group C member 1 (Homo sapiens); assay: Selectivity interaction (Reporter gene assay) EUB0000582a NR2C1; parameters: recommended concentration 1 uM
[24] = target: Nuclear receptor subfamily 2 group E member 1 (Homo sapiens) (UniProt Q9Y466); assay: Selectivity interaction (Reporter gene assay) EUB0000582a NR2E1; parameters: recommended concentration 1 uM
[25] = target: Nuclear receptor subfamily 4immunitygroup A member 1 (Homo sapiens) (UniProt P22736); assay: Selectivity interaction (Reporter gene assay) EUB0000582a NR4A1; parameters: recommended concentration 1 uM
[26] = target: Steroidogenic factor 1 (Homo sapiens) (UniProt Q13285); assay: Selectivity interaction (Reporter gene assay) EUB0000582a NR5A1; parameters: recommended concentration 1 uM
[27] = target: T3, Alpha trans-inducing protein (Human alphaherpesvirus 1); assay: Selectivity interaction (Reporter gene assay) EUB0000582a UL48; parameters: recommended concentration 1 uM
[28] = target: T4, Retinoic acid receptor RXR-alpha (Homo sapiens); assay: Selectivity interaction (Reporter gene assay) EUB0000582a RXRA; parameters: recommended concentration 1 uM; conditions: reference bexarotene 1 uM, Selectivity number of off-targets 0.0, Selectivity number of targets 1.0, Source Knowledge inhouse
[29] = target: T1, Hepatocyte nuclear factor 4-alpha (Homo sapiens); assay: Selectivity interaction (Reporter gene assay) EUB0000572aCl HNF4A; parameters: recommended concentration 3 uM
[30] = target: T2, Nuclear receptor subfamily 2 group C member 1 (Homo sapiens); assay: Selectivity interaction (Reporter gene assay) EUB0000572aCl NR2C1; parameters: recommended concentration 3 uM; conditions: screened at recom. conc., Selectivity number of off-targets 2.0, Selectivity number of targets 5.0, Source Knowledge inhouse
[31] = target: Nuclear receptor subfamily 2 group E member 1 (Homo sapiens) (UniProt Q9Y466); assay: Selectivity interaction (Reporter gene assay) EUB0000572aCl NR2E1; parameters: recommended concentration 3 uM; conditions: screened at recom. conc., Selectivity number of off-targets 2.0, Selectivity number of targets 5.0, Source Knowledge inhouse
[32] = target: Nuclear receptor subfamily 4immunitygroup A member 1 (Homo sapiens) (UniProt P22736); assay: Selectivity interaction (Reporter gene assay) EUB0000572aCl NR4A1; parameters: recommended concentration 3 uM
[33] = target: Steroidogenic factor 1 (Homo sapiens) (UniProt Q13285); assay: Selectivity interaction (Reporter gene assay) EUB0000572aCl NR5A1; parameters: recommended concentration 3 uM
[34] = target: T3, Alpha trans-inducing protein (Human alphaherpesvirus 1); assay: Selectivity interaction (Reporter gene assay) EUB0000572aCl UL48; parameters: recommended concentration 3 uM
[35] = target: T4, Retinoic acid receptor RXR-alpha (Homo sapiens); assay: Selectivity interaction (Reporter gene assay) EUB0000572aCl RXRA; parameters: recommended concentration 3 uM; conditions: reference bexarotene 1 uM, Selectivity number of off-targets 0.0, Selectivity number of targets 1.0, Source Knowledge inhouse

SMILES: CCOP(=O)(OCC)C(=Cc1cc(C(C)(C)C)c(O)c(C(C)(C)C)c1)P(=O)(OCC)OCC
Remaining activity [15]: 0.935 | Fold activation [16]: 1.37 | Remaining activity [17]: 0.795 | Remaining activity [18]: 0.959 | Fold activation [19]: 1.01 | P-value [20]: 0.0136 | Relative activation [21]: 0.581%

SMILES: C=C1/C(=C\C=C2/CCC[C@]3(C)[C@@H]([C@H](C)/C=C/C=C/C(O)(CC)CC)CC[C@@H]23)C[C@@H](O)C[C@@H]1O
Fold activation [22]: 1.08 | Fold activation [23]: 1.62 | Fold activation [24]: 0.996 | Fold activation [25]: 1.19 | Fold activation [26]: 1.27 | P-value [27]: 0.000219 | Relative activation [28]: 0.643%

Second part, the molecule after the results:

Remaining activity [1]: 0.623 | Remaining activity [2]: 0.638 | Remaining activity [3]: 0.57 | Remaining activity [4]: 0.496 | Remaining activity [5]: 0.672 | P-value [6]: 0.00063 | Relative activation [7]: 0.666%
SMILES: Cc1cc(OCC(=O)O)cc(C)c1Cc1ccc(O)c(C(C)C)c1

Remaining activity [8]: 0.993 | Fold activation [9]: 1.19 | Remaining activity [10]: 0.883 | Remaining activity [11]: 0.837 | Fold activation [12]: 1.08 | P-value [13]: 0.000557 | Relative activation [14]: 0.635%
SMILES: C=C1/C(=C\C=C2/CCC[C@]3(C)[C@@H]([C@H](C)/C=C/[C@H](C)C(C)C)CC[C@@H]23)C[C@@H](O)C[C@@H]1O

Fold activation [29]: 1.18 | Fold activation [30]: 1.98 | Fold activation [31]: 1.82 | Fold activation [32]: 1.4 | Fold activation [33]: 1.13 | P-value [34]: 2.13e-05 | Relative activation [35]: 0.674%
SMILES: O=C(O)Cc1cccc(OCCCN(Cc2cccc(C(F)(F)F)c2Cl)CC(c2ccccc2)c2ccccc2)c1

From ChEMBL document CHEMBL5715260, “Selectivity Literature for EUbOPEN Chemogenomic Library” (2024)
